How the values were obtained:
[1] = system: Crotalaria juncea; assay: Herbicidal tolerance in Crotalaria juncea (sunn hump) performance assessed as plant hight at 0.07 kg/ha post-emergence treatment measured after 2 weeks; format: ADME, organism-based; conditions: in vivo, other, 336 h
[2] = system: Cyperus esculentus; assay: Herbicidal activity against Cyperus esculentus (yellow nutsedge) in sunn hemp assessed as weed control at 0.07 kg/ha post-emergence treatment measured after 2 weeks; format: functional
[3] = system: Eragrostis cilianensis; assay: Herbicidal activity against Eragrostis cilianensis (stinkgrass) in sunn hemp assessed as weed control at 0.07 kg/ha post-emergence treatment measured after 2 weeks; format: functional
[4] = system: Crotalaria juncea; assay: Herbicidal tolerance in Crotalaria juncea (sunn hump) performance assessed as injury at 0.07 kg/ha post-emergence treatment measured after 2 weeks; format: ADME, organism-based; conditions: in vivo, other, 336 h
[5] = system: Digitaria sanguinalis; assay: Herbicidal activity against Digitaria sanguinalis (hairy crabgrass) in sunn hemp assessed as weed control at 0.07 kg/ha post-emergence treatment measured after 2 weeks; format: functional
[6] = system: Crotalaria juncea; assay: Herbicidal tolerance in Crotalaria juncea (sunn hump) performance assessed as stand count at 0.07 kg/ha post-emergence treatment measured after 2 weeks; format: ADME, organism-based; conditions: in vivo, other, 336 h
[7] = system: Cyperus esculentus; assay: Herbicidal activity against Cyperus esculentus (yellow nutsedge) in sunn hemp assessed as weed control at 1.12 kg/ha post-emergence treatment measured after 2 weeks; format: functional
[8] = system: Eragrostis cilianensis; assay: Herbicidal activity against Eragrostis cilianensis (stinkgrass ) in sunn hemp assessed as weed control at 1.12 kg/ha post-emergence treatment measured after 2 weeks; format: functional
[9] = system: Crotalaria juncea; assay: Herbicidal tolerance in Crotalaria juncea (sunn hump) performance assessed as injury at 1.12 kg/ha post-emergence treatment measured after 2 weeks; format: ADME, organism-based; conditions: in vivo, other, 336 h
[10] = system: Digitaria sanguinalis; assay: Herbicidal activity against Digitaria sanguinalis (hairy crabgrass) in sunn hemp assessed as weed control at 1.12 kg/ha post-emergence treatment measured after 2 weeks; format: functional
[11] = system: Crotalaria juncea; assay: Herbicidal tolerance in Crotalaria juncea (sunn hump) performance assessed as stand count at 1.12 kg/ha post-emergence treatment measured after 2 weeks; format: ADME, organism-based; conditions: in vivo, other, 336 h
[12] = system: Crotalaria juncea; assay: Herbicidal tolerance in Crotalaria juncea (sunn hump) performance assessed as plant hight at 1.12 kg/ha post-emergence treatment measured after 2 weeks; format: ADME, organism-based; conditions: in vivo, other, 336 h

Cc1cnc(C2=NC(=O)C(C)(C(C)C)N2)c(C(=O)O)c1 (configuration not stated) [IMAZAPIC]
Activity [1]: 110 cm
Activity [2]: 91%
Activity [3]: 93%
Activity [4]: 9%
Activity [5]: 76%
Activity [6]: 8.18 /m2

CCC(CC)Nc1c([N+](=O)[O-])cc(C)c(C)c1[N+](=O)[O-] [PENDIMETHALIN]
Activity [7]: 63%
Activity [8]: 94%
Activity [9]: 7%
Activity [10]: 78%
Activity [11]: 8.18 /m2
Activity [12]: 108 cm
